The experiment concerns the target T1, LCAT (Homo sapiens, UniProt P04180).
T1 construct: The obtained fraction was dialyzed against phosphate-buffered saline (pH 7.4) and used as an enzyme source and an acceptor for LCAT; from tissue; host or cells: HDL3 fraction (1.125<specific gravity<1.210 g/mL) of plasma from a healthy person
T1 sequence (P04180 25-440): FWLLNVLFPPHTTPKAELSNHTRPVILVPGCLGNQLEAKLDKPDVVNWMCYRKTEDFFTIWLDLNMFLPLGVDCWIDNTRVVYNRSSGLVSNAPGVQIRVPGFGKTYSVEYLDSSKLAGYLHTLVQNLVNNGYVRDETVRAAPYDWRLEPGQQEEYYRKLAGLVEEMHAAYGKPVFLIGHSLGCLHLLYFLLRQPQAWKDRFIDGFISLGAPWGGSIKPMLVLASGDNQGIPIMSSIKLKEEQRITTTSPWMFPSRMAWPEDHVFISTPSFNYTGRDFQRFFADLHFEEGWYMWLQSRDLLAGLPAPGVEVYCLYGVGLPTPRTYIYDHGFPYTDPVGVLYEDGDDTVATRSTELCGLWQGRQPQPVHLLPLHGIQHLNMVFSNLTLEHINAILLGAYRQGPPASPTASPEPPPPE
The experiment can be described thus: LCAT Activity Measurement (In Vitro). The format is biochemical. As to conditions: EC50 of LCAT activation; HDL3 fraction from plasma of a healthy person as enzyme source and acceptor; [14C]cholesterol; 37° C., approximately 16 hours. On the procedure:
A fraction composed of HDL3 (1.125<specific gravity<1.210 g/mL) was obtained from the plasma of a healthy person by density gradient centrifugation. The obtained fraction was dialyzed against phosphate-buffered saline (pH 7.4) and used as an enzyme source and an acceptor for LCAT. Each test drug was prepared by dissolution in dimethyl sulfoxide. [14C]Cholesterol containing DTNB (Ellman's reagent, final concentration: 0.5 mM), mercaptoethanol (final concentration: 12.5 mM), and 0.6% bovine serum albumin was added to phosphate-buffered saline (pH 7.4) containing 1 mg/mL HDL3, and the test drug was further added thereto at varying concentrations to adjust the whole amount to 80 μL. This mixture was incubated at 37° C. for approximately 16 hours. Then, a mixed solution of hexane and isopropanol (mixing ratio=3:2) was added thereto to stop the reaction. After stirring, the hexane layer was collected, and this layer was evaporated to dryness. A chloroform solution (concentration: 10 mg/mL) was added thereto, and the mixture was spotted onto a thin-layer silica gel plate and developed using a mixed solution of hexane, diethyl ether, and ethyl acetate (mixing ratio=85:15:2). The radioactivity of a portion corresponding to cholesterol oleate was measured using an imaging analyzer BAS-2500 (manufactured by Fujifilm Corp.). A sample non-supplemented with the test drug was similarly treated and assayed. The EC50 value of LCAT activation was calculated according to the expression given below relative to LCAT activity in the sample non-supplemented with the test drug.
wherein X represents the logarithm of the concentration of the test drug;
Y represents the responsiveness (LCAT activity) of the test drug;
Top represents the maximum value (maximum plateau);
Bottom represents the minimum value (minimum plateau); and
EC50 represents the 50% effective concentration.

Structures can show the parent of a compound that is named as a salt.

As for `O=C1CC(O)(C(F)(F)F)c2c(C3CCN(c4ccc(F)cn4)CC3)n[nH]c2N1` (stereo not drawn) [Example 15, 3-[1-(5-Fluoropyridin-2-yl)piperidin-4-yl]-4-hydroxy-4-(trifluoromethyl)-1,4,5,7-tetrahydro-6H-pyrazolo[3,4-b]pyridin-6-one], the EC50 – broadly, the concentration that produces a half-maximal response – worked out at 250 nM.
Regarding `O=C1CC(O)(C(F)(F)F)c2c(C3CCN(c4ccc5ccccc5n4)CC3)n[nH]c2N1` (stereo not drawn) [Example 16, 4-Hydroxy-3-[1-(quinolin-2-yl)piperidin-4-yl]-4-(trifluoromethyl)-1,4,5,7-tetrahydro-6H-pyrazolo[3,4-b]pyridin-6-one], a half-maximal response (EC50) required 96 nM.
In the case of `CC(C)Oc1ccc(N2CCC(c3n[nH]c4c3C(O)(C(F)(F)F)CC(=O)N4)CC2)nn1` (stereo not drawn) [Example 17, 4-Hydroxy-3-{1-[6-(propan-2-yloxy)pyridazin-3-yl]piperidin-4-yl}-4-(trifluoromethyl)-1,4,5,7-tetrahydro-6H-pyrazolo[3,4-b]pyridin-6-one] it was 64 nM; in that of `CC(C)Oc1ccc(N2CCC(c3n[nH]c4c3C(O)(C(F)(F)F)CC(=O)N4)CC2)nn1` (stereo not drawn) [Example 18, 4-Hydroxy-3-{1-[6-(propan-2-yloxy)pyridazin-3-yl]piperidin-4-yl}-4-(trifluoromethyl)-1,4,5,7-tetrahydro-6H-pyrazolo[3,4-b]pyridin-6-one hydrochloride], 101 nM.
In the case of `N#Cc1ccc(N2CCC(c3n[nH]c4c3C(O)(C(F)(F)F)CC(=O)N4)CC2)cn1` (stereo not drawn) [Example 19, 5-{4-[4-Hydroxy-6-oxo-4-(trifluoromethyl)-4,5,6,7-tetrahydro-1H-pyrazolo[3,4-b]pyridin-3-yl]piperidin-1-yl}pyridine-2-carbonitrile] it was 650 nM.
With `Cc1nc(N2CCC(c3n[nH]c4c3C(O)(C(F)(F)F)CC(=O)N4)CC2)ccc1C#N` (stereo not drawn) [Example 20, 6-{4-[4-Hydroxy-6-oxo-4-(trifluoromethyl)-4,5,6,7-tetrahydro-1H-pyrazolo[3,4-b]pyridin-3-yl]piperidin-1-yl}-2-methylpyridine-3-carbonitrile] the figure was 290 nM.
Turning to `N#Cc1ccc(N2CCC(c3n[nH]c4c3C(O)(C(F)(F)F)CC(=O)N4)CC2)nc1Cl` (stereo not drawn) [Example 21, 2-Chloro-6-{4-[4-hydroxy-6-oxo-4-(trifluoromethyl)-4,5,6,7-tetrahydro-1H-pyrazolo[3,4-b]pyridin-3-yl]piperidin-1-yl}pyridine-3-carbonitrile], the response was half-maximal at 270 nM (EC50).
`N#Cc1cccc(N2CCC(c3n[nH]c4c3C(O)(C(F)(F)F)CC(=O)N4)CC2)n1` (stereo not drawn) [Example 22, 6-{4-[4-Hydroxy-6-oxo-4-(trifluoromethyl)-4,5,6,7-tetrahydro-1H-pyrazolo[3,4-b]pyridin-3-yl]piperidin-1-yl}pyridine-2-carbonitrile] had an EC50 of 180 nM.
With `N#Cc1cccc(N2CCC(c3n[nH]c4c3C(O)(C(F)(F)F)CC(=O)N4)CC2)c1` (stereo not drawn) [Example 23, 3-{4-[4-Hydroxy-6-oxo-4-(trifluoromethyl)-4,5,6,7-tetrahydro-1H-pyrazolo[3,4-b]pyridin-3-yl]piperidin-1-yl}benzonitrile] the figure was 120 nM; with `O=C1CC(O)(C(F)(F)F)c2c(C3CCN(c4nc5ccccc5o4)CC3)n[nH]c2N1` (stereo not drawn) [Example 24, 3-[1-(1,3-Benzoxazol-2-yl)piperidin-4-yl]-4-hydroxy-4-(trifluoromethyl)-1,4,5,7-tetrahydro-6H-pyrazolo[3,4-b]pyridin-6-one], 150 nM.
With `O=C1CC(O)(C(F)(F)F)c2c(C3CCN(c4nc5ccccc5s4)CC3)n[nH]c2N1` (stereo not drawn) [Example 25, 3-[1-(1,3-Benzothiazol-2-yl)piperidin-4-yl]-4-hydroxy-4-(trifluoromethyl)-1,4,5,7-tetrahydro-6H-pyrazolo[3,4-b]pyridin-6-one] the figure was 200 nM; with `Cc1cncc(N2CCC(c3n[nH]c4c3C(O)(C(F)(F)F)CC(=O)N4)CC2)n1` (stereo not drawn) [Example 26, 4-Hydroxy-3-[1-(6-methylpyrazin-2-yl)piperidin-4-yl]-4-(trifluoromethyl)-1,4,5,7-tetrahydro-6H-pyrazolo[3,4-b]pyridin-6-one], 260 nM.
In the case of `O=C1CC(O)(C(F)(F)F)c2c(C3CCN(c4cccnc4)CC3)n[nH]c2N1` (stereo not drawn) [Example 27, 4-Hydroxy-3-[1-(pyridin-3-yl)piperidin-4-yl]-4-(trifluoromethyl)-1,4,5,7-tetrahydro-6H-pyrazolo[3,4-b]pyridin-6-one] it was 2410 nM; in that of `COc1ccc(N2CCC(c3n[nH]c4c3C(O)(C(F)(F)F)CC(=O)N4)CC2)nn1` (stereo not drawn) [Example 28, 4-Hydroxy-3-[1-(6-methoxypyridazin-3-yl)piperidin-4-yl]-4-(trifluoromethyl)-1,4,5,7-tetrahydro-6H-pyrazolo[3,4-b]pyridin-6-one], 300 nM; in that of `O=C1CC(O)(C(F)(F)F)c2c(C3CCN(c4nccs4)CC3)n[nH]c2N1` (stereo not drawn) [Example 29, 4-Hydroxy-3-[1-(1,3-thiazol-2-yl)piperidin-4-yl]-4-(trifluoromethyl)-1,4,5,7-tetrahydro-6H-pyrazolo[3,4-b]pyridin-6-one], 1880 nM.
Consider `COc1ccnc(N2CCC(c3n[nH]c4c3C(O)(C(F)(F)F)CC(=O)N4)CC2)n1` (stereo not drawn) [Example 30, 4-Hydro-3-[1-(4-methoxypyrimidin-2-yl)piperidin-4-yl]-4-(trifluoromethyl)-1,4,5,7-tetrahydro-6H-pyrazolo[3,4-b]pyridin-6-one], for which the EC50 turned out to be 2460 nM.
The molecule `N#Cc1ccc(N2CCC(c3n[nH]c4c3C(O)(C(F)(F)F)CC(=O)N4)CC2)nc1` (stereo not drawn) [Example 31, 6-{4-[4-Hydroxy-6-oxo-4-(trifluoromethyl)-4,5,6,7-tetrahydro-1H-pyrazolo[3,4-b]pyridin-3-yl]piperidin-1-yl}pyridine-3-carbonitrile] registered an EC50 of 330 nM.
With `COc1ccc(N2CCC(c3n[nH]c4c3C(O)(C(F)(F)F)CC(=O)N4)CC2)cn1` (stereo not drawn) [Example 32, 4-Hydroxy-3-[1-(6-methoxypyridin-3-yl)piperidin-4-yl]-4-(trifluoromethyl)-1,4,5,7-tetrahydro-6H-pyrazolo[3,4-b]pyridin-6-one] the figure was 300 nM.
With `N#Cc1ccnc(N2CCC(c3n[nH]c4c3C(O)(C(F)(F)F)CC(=O)N4)CC2)c1` (stereo not drawn) [Example 33, 2-{4-[4-Hydroxy-6-oxo-4-(trifluoromethyl)-4,5,6,7-tetrahydro-1H-pyrazolo[3,4-b]pyridin-3-yl]piperidin-1-yl}pyridine-4-carbonitrile] the figure was 56 nM; with `O=C1CC(O)(C(F)(F)F)c2c(C3CCN(c4ccc(Cl)nn4)CC3)n[nH]c2N1` (stereo not drawn) [Example 34, 3-[1-(6-Chloropyridazin-3-yl)piperidin-4-yl]-4-hydroxy-4-(trifluoromethyl)-1,4,5,7-tetrahydro-6H-pyrazolo[3,4-b]pyridin-6-one], 150 nM.
Take `N#Cc1ccc(N2CCC(c3n[nH]c4c3C(O)(C(F)(F)F)CC(=O)N4)CC2)cc1` (stereo not drawn) [Example 35, 4-{4-[4-Hydroxy-6-oxo-4-(trifluoromethyl)-4,5,6,7-tetrahydro-1H-pyrazolo[3,4-b]pyridin-3-yl]piperidin-1-yl}benzonitrile]: a half-maximal effect (EC50) was put at 380 nM.
For the molecule `COc1ccc(N2CCC(c3n[nH]c4c3C(O)(C(F)(F)F)CC(=O)N4)CC2)nc1` (stereo not drawn) [Example 36, 4-Hydroxy-3-[1-(5-methoxypyridin-2-yl)piperidin-4-yl]-4-(trifluoromethyl)-1,4,5,7-tetrahydro-6H-pyrazolo[3,4-b]pyridin-6-one], the EC50 stood at 420 nM.
With `N#Cc1cncc(N2CCC(c3n[nH]c4c3C(O)(C(F)(F)F)CC(=O)N4)CC2)c1` (stereo not drawn) [Example 37, 5-{4-[4-Hydroxy-6-oxo-4-(trifluoromethyl)-4,5,6,7-tetrahydro-1H-pyrazolo[3,4-b]pyridin-3-yl]piperidin-1-yl}pyridine-3-carbonitrile] the figure was 71 nM; with `N#Cc1ncc(N2CCC(c3n[nH]c4c3C(O)(C(F)(F)F)CC(=O)N4)CC2)cc1F` (stereo not drawn) [Example 38, 3-Fluoro-5-{4-[4-hydroxy-6-oxo-4-(trifluoromethyl)-4,5,6,7-tetrahydro-1H-pyrazolo[3,4-b]pyridin-3-yl]piperidin-1-yl}pyridine-2-carbonitrile], 43 nM.

The values above are taken from patent US9150575B2, “Piperidinylpyrazolopyridine derivative” (Daiichi Sankyo Company, Limited, priority 2012, dated 2015).
